Measurements taken from US10294202B2, “Pyrrolidinones as herbicides” (FMC Corporation, priority 2013, dated 2019).

How the values were obtained:
giant foxtail = test: Test A pre-/postemergence herbicide test; format: in vivo, Setaria faberii
How it was run: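 Visual injury ratings, 0 = no effect, 100 = complete control, taken ~10 days after treatment against untreated greenhouse controls. Preemergence: directed soil spray onto seeded loam/sand pots. Postemergence: spray onto plants at one- to two-leaf stage, 2–10 cm tall.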

sedge, umbrella = test: Test B flooded paddy test; format: in vivo, Cyperus difformis; conditions: Flood, scale of 0 to 100 where 0 is no effect and 100 is complete control
How it was run: (§1)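 In-water application to pots flooded 3 cm deep, plants at 2-leaf stage. Held in greenhouse 13–15 days at constant flood depth. Scored 0–100 by eye against controls.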

barnyardgrass [1] = test: Test B flooded paddy test; format: in vivo, Echinochloa crus-galli; conditions: Flood, scale of 0 to 100 where 0 is no effect and 100 is complete control
How it was run: as §1

waterhemp = test: Test C pre-/postemergence herbicide test; format: in vivo, Amaranthus rudis
How it was run: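 Pre- and postemergence greenhouse screen. Preemergence treatment went onto freshly planted seeds in loam–sand soil; postemergence treatment went onto plants 2 to 18 cm tall at the 1- to 4-leaf stage in sphagnum peat/vermiculite medium. Scoring at 13 to 15 days used a 0–100 control scale.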

chickweed = test: Test C postemergence herbicide test; format: in vivo, Stellaria media
From the text: At the same time, plants selected from these crop and weed species and also barley (winter barley, Hordeum vulgare), […]), chickweed (common chickweed, Stellaria media), deadnettle (henbit deadnettle, Lamium amplexicaule), and canarygrass (littleseed canarygrass, Phalaris minor) were planted in pots containing Redi-Earth® planting medium (Scotts Company, 14111 Scottslawn Road, Marysville, Ohio 43041) comprising spaghnum peat moss, vermiculite, wetting agent and starter nutrients and treated with postemergence applications of test chemicals formulated in the same manner. Plants ranged in height from 2 to 18 cm (1- to 4-leaf stage) for postemergence treatments. Treated plants and controls were maintained in a greenhouse for 13 to 15 days, after which time all species were compared to controls and visually evaluated. Plant response ratings, summarized in Table C, are based on a scale of 0 to 100 where 0 is no effect and 100 is complete control. A dash (-) response means no test result.

barnyardgrass [2] = test: Test C flooded paddy test; format: in vivo, Echinochloa crus-galli; conditions: Flood, scale of 0 to 100 where 0 is no effect and 100 is complete control, 13 to 15 days
How it was run: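 Ratings reflect visual comparison with controls on a 0–100 scale, where 100 is complete control. Compound is dosed into standing paddy water 3 cm deep over 2-leaf-stage plants, kept in the greenhouse 13 to 15 days.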

[3] = Postemergence, 31 g ai/ha, scale 0 (no effect) to 100 (complete control)
[4] = Postemergence, 62 g ai/ha, scale 0 to 100 (0 no effect, 100 complete control)
[5] = Postemergence, 125 g ai/ha, scale 0 to 100 (0 no effect, 100 complete control)
[6] = Postemergence, 250 g ai/ha, scale 0 to 100 (0 no effect, 100 complete control)
[7] = 31 g ai/ha, scale 0 (no effect) to 100 (complete control)
[8] = 62 g ai/ha, scale 0 to 100 (0 no effect, 100 complete control)
[9] = 125 g ai/ha, scale 0 to 100 (0 no effect, 100 complete control)
[10] = 250 g ai/ha, scale 0 to 100 (0 no effect, 100 complete control)
[11] = Postemergence, 125 g ai/ha, 0 to 100 scale, 0 no effect, 100 complete control
[12] = Postemergence, 500 g ai/ha, 0 to 100 scale (0 no effect, 100 complete control)
[13] = Preemergence, 125 g ai/ha, visual rating on 0 to 100 scale (0 no effect, 100 complete control)
[14] = preemergence, 500 g ai/ha, 0 to 100 scale
[15] = Preemergence, 31 g ai/ha, scale 0 to 100, 0 is no effect and 100 is complete control
[16] = Preemergence, 125 g ai/ha, scale 0 to 100 (0 no effect, 100 complete control)
[17] = Postemergence, 31 g ai/ha, scale 0 to 100 (0 no effect, 100 complete control)
[18] = Postemergence, 62 g ai/ha, scale 0 (no effect) to 100 (complete control)
[19] = Preemergence, 62 g ai/ha, scale 0 to 100 (0 no effect, 100 complete control)

SMILES: Cc1c(F)cccc1NC(=O)C1C(=O)NCC1c1ccc(F)c(F)c1 (racemic) [Compound 106]
- Plant response rating, Foxtail, Giant (giant foxtail; Postemergence, 1000 g ai/ha, 0 to 100 scale (0 no effect, 100 complete control)): 90
- Plant response rating, Foxtail, Giant (giant foxtail; preemergence, 1000 g ai/ha, 0 to 100 scale): 90
- Plant response rating, Sedge, Umbrella (sedge, umbrella; 1000 g ai/ha): 0
- Plant response rating, Barnyardgrass (barnyardgrass [1]; 1000 g ai/ha): 60
- Plant response rating, Waterhemp (waterhemp; [3]): 0
- Plant response rating, Waterhemp (waterhemp; [4]): 0
- Plant response rating, Waterhemp (waterhemp; [5]): 10
- Plant response rating, Waterhemp (waterhemp; [6]): 20
- Plant response rating, Chickweed (chickweed; [7]): 0
- Plant response rating, Chickweed (chickweed; [8]): 0
- Plant response rating, Chickweed (chickweed; [9]): 5
- Plant response rating, Chickweed (chickweed; [10]): 30

SMILES: Cc1ccccc1NC(=O)C1C(=O)NCC1c1cccc(C(F)(F)F)c1 (racemic) [Compound 109]
- Plant response rating, Foxtail, Giant (giant foxtail; [11]): 90
- Plant response rating, Foxtail, Giant (giant foxtail; [12]): 90
- Foxtail, Giant plant response rating (giant foxtail; [13]): 90
- Plant response rating, Foxtail, Giant (giant foxtail; [14]): 90
- Plant response rating, Sedge, Umbrella (sedge, umbrella; 1000 g ai/ha): 80
- Plant response rating, Barnyardgrass (barnyardgrass [1]; 1000 g ai/ha): 0
- Plant response rating, Waterhemp (waterhemp; [3]): 0
- Plant response rating, Waterhemp (waterhemp; [4]): 0
- Plant response rating, Waterhemp (waterhemp; [5]): 0
- Plant response rating, Waterhemp (waterhemp; [6]): 0
- Waterhemp plant response rating (waterhemp; [15]): 0
- Plant response rating, Waterhemp (waterhemp; Preemergence, 62 g ai/ha, scale 0 to 100): 50
- Plant response rating, Waterhemp (waterhemp; [16]): 0
- Plant response rating (scale of 0 to 100), Waterhemp (waterhemp; Preemergence, 250 g ai/ha): 20
- Plant response rating, Chickweed (chickweed; [7]): 0
- Plant response rating, Chickweed (chickweed; [8]): 0
- Plant response rating, Chickweed (chickweed; [9]): 0
- Plant response rating, Chickweed (chickweed; [10]): 0

SMILES: O=C1NCC(c2ccc(C(F)(F)F)cc2)C1C(=O)Nc1cccc(F)c1F (racemic) [Compound 202]
- Plant response rating, Foxtail, Giant (giant foxtail; 125 g ai/ha, visual rating, 0 to 100 scale, 0 no effect, 100 complete control, approximately 10 days, preemergence): 90
- Plant response rating, Foxtail, Giant (giant foxtail; Postemergence, 125 g ai/ha, 0 to 100 scale, 0 is no effect, 100 is complete control): 90
- Foxtail, Giant plant response rating (0 to 100 scale, 0 is no effect, 100 is complete control) (giant foxtail; Postemergence, 500 g ai/ha): 90
- Plant response rating, Foxtail, Giant (giant foxtail; preemergence, 500 g ai/ha, 0 to 100 scale, 0 is no effect and 100 is complete control): 90
- Plant response rating, Sedge, Umbrella (sedge, umbrella; 500 g ai/ha): 0
- Plant response rating, Barnyardgrass (barnyardgrass [1]; 500 g ai/ha): 65
- Plant response rating, Waterhemp (waterhemp; [17]): 60
- Plant response rating, Waterhemp (waterhemp; [18]): 65
- Plant response rating, Waterhemp (waterhemp; [5]): 75
- Plant response rating, Waterhemp (waterhemp; [6]): 85
- Waterhemp plant response rating (waterhemp; [15]): 85
- Waterhemp plant response rating (waterhemp; [19]): 95
- Plant response rating, Waterhemp (waterhemp; [16]): 100
- Plant response rating (scale of 0 to 100), Waterhemp (waterhemp; Preemergence, 250 g ai/ha): 100
- Plant response rating, Chickweed (chickweed; 31 g ai/ha, scale 0 to 100 (0 no effect, 100 complete control)): 80
- Plant response rating, Chickweed (chickweed; 62 g ai/ha, scale 0 (no effect) to 100 (complete control)): 80
- Plant response rating, Chickweed (chickweed; [9]): 85
- Plant response rating, Chickweed (chickweed; [10]): 85

SMILES: O=C1NCC(c2cc(F)c(F)c(F)c2)C1C(=O)Nc1cccc(F)c1F (stereo not drawn) [Compound 48]
- Plant response rating, Foxtail, Giant (giant foxtail; [11]): 80
- Plant response rating, Foxtail, Giant (giant foxtail; [12]): 80
- Foxtail, Giant plant response rating (giant foxtail; [13]): 80
- Plant response rating, Foxtail, Giant (giant foxtail; [14]): 90
- Plant response rating, Sedge, Umbrella (sedge, umbrella; 250 g ai/ha): 60
- Plant response rating, Barnyardgrass (barnyardgrass [1]; 250 g ai/ha): 40
- Plant response rating, Chickweed (chickweed; 16 g ai/ha, scale 0 to 100 (0 no effect, 100 complete control)): 0
- Plant response rating, Chickweed (chickweed; [7]): 0
- Plant response rating, Chickweed (chickweed; [8]): 30
- Plant response rating, Chickweed (chickweed; [9]): 30

SMILES: O=C1NCC(c2cc(F)c(F)cc2F)C1C(=O)Nc1cccc(F)c1F (stereo not drawn) [Compound 50]
- Plant response rating, Foxtail, Giant (giant foxtail; [11]): 80
- Plant response rating, Foxtail, Giant (giant foxtail; [12]): 80
- Foxtail, Giant plant response rating (giant foxtail; [13]): 90
- Plant response rating, Foxtail, Giant (giant foxtail; [14]): 90
- Plant response rating, Sedge, Umbrella (sedge, umbrella; 250 g ai/ha): 55
- Plant response rating, Barnyardgrass (barnyardgrass [1]; 250 g ai/ha): 0
- Plant response rating, Chickweed (chickweed; [7]): 0
- Plant response rating, Chickweed (chickweed; [8]): 0
- Plant response rating, Chickweed (chickweed; [9]): 0
- Plant response rating, Chickweed (chickweed; [10]): 5

SMILES: O=C1NCC(c2ccc(F)c(Cl)c2)C1C(=O)Nc1ccccc1F (stereo not drawn) [Compound 60]
- Plant response rating, Foxtail, Giant (giant foxtail; [11]): 80
- Plant response rating, Foxtail, Giant (giant foxtail; [12]): 80
- Foxtail, Giant plant response rating (giant foxtail; [13]): 90
- Plant response rating, Foxtail, Giant (giant foxtail; [14]): 90
- Plant response rating, Sedge, Umbrella (sedge, umbrella; 250 g ai/ha): 60
- Plant response rating, Barnyardgrass (barnyardgrass [1]; 250 g ai/ha): 30
- Plant response rating, Chickweed (chickweed; [7]): 0
- Plant response rating, Chickweed (chickweed; [8]): 10
- Plant response rating, Chickweed (chickweed; [9]): 30

SMILES: O=C1NCC(c2cccc(OC(F)F)c2)C1C(=O)Nc1ccccc1F (stereo not drawn) [Compound 323]
- Plant response rating, Foxtail, Giant (giant foxtail; Postemergence, 125 g ai/ha, visual rating on 0 to 100 scale (0 no effect, 100 complete control), approx. 10 days): 90
- Plant response rating, Foxtail, Giant (giant foxtail; [12]): 90
- Plant response rating, Foxtail, Giant (giant foxtail; Preemergence, 125 g ai/ha, 0 to 100 scale where 0 is no effect and 100 is complete control): 90
- Foxtail, Giant plant response rating (giant foxtail; Preemergence, 500 g ai/ha, visual rating on 0 to 100 scale (0 no effect, 100 complete control)): 90
- Plant response rating, Sedge, Umbrella (sedge, umbrella; 500 g ai/ha): 0
- Plant response rating, Barnyardgrass (barnyardgrass [1]; 500 g ai/ha): 80
- Plant response rating, Waterhemp (waterhemp; [17]): 0
- Plant response rating, Waterhemp (waterhemp; [18]): 0
- Plant response rating, Waterhemp (waterhemp; [5]): 0
- Plant response rating, Waterhemp (waterhemp; [6]): 20
- Waterhemp plant response rating (waterhemp; [19]): 50
- Plant response rating, Waterhemp (waterhemp; Preemergence, 125 g ai/ha, scale 0 to 100): 60
- Plant response rating, Barnyardgrass (barnyardgrass [2]; 31 g ai/ha): 25
- Plant response rating, Barnyardgrass (barnyardgrass [2]; 62 g ai/ha): 45
- Plant response rating, Barnyardgrass (barnyardgrass [2]; 125 g ai/ha): 50
- Plant response rating, Barnyardgrass (barnyardgrass [2]; 250 g ai/ha): 65
